According to PMC4001449, “Thienoquinolines as Novel Disruptors of the PKCε/RACK2 Protein–Protein Interaction” (Journal of Medicinal Chemistry, 2014):

Assays:
[1] = molecular target: ERK1 (Homo sapiens, UniProt P27361); test: Kinase profiling (Dundee), ERK1; format: biochemical; conditions: 25 μM solution
[2] = tested on: PKCδ; test: PKCδ translocation, cell fractionation and Western blotting in PC-3 cells; format: cell-based, human; conditions: TPA, Figure 3
Protocol: (§1) For PKCε translocation PC-3 cells were starved for 16 h, treated with 8 for 30 min, stimulated with 50 nM TPA for 5 min, lysed, and fractionated with a CNMCS/CNM compartmental protein extraction kit (BioChain Institute, Newark, CA). Western blotting was performed by a standard procedure as described by Garczarczyk et al.[27],[40] Cytosolic and membrane fractions were loaded onto SDS gels and transferred to an Immobilon membrane (Millipore, Billerica, MA). The membranes were incubated with rabbit polyclonal IgG antibodies for detection of PKCε (Santa Cruz Biotechnology; dilution 1:2000), for PKCε phosphoSer^729 (Millipore; dilution 1:1000), for PKCδ (Santa Cruz Biotechnology; dilution 1:1000), and for MARCKS phosphoSer152/156 (Cell Signaling Technology, Danvers, MA; dilution 1:1000). For the loading control tubulin (Santa Cruz Biotechnology; dilution 1:1000), and as marker for the membrane fraction, an IGFI-βR rabbit polyclonal IgG antibody (Santa Cruz; dilution 1:1000) and, as secondary antibodies, peroxidase-conjugated AffiniPure goat anti-rabbit IgG (Jackson ImmunoResearch Laboratories, West Grove, PA; dilution 1:20000) were used. GAPDH (Chemicon, Millipore, Billerica, MA; dilution 1:10000) was used as loading control for the cytosolic fraction. […]

[3] = tested on: VEGF-induced angiogenesis in chicken egg; test: Chicken egg angiogenesis assay; format: in vivo; conditions: Figure 8
Protocol: Eggs from hen were incubated at 37 °C for 3 days, opened, and incubated for further 7 days. After further incubation for 5 days, angiogenesis was observed by microscope.

[4] = molecular target: T1, NUAK1 (Homo sapiens, UniProt O60285); test: Kinase profiling (Dundee), NUAK1; format: biochemical; conditions: 25 μM solution
T1 sequence (O60285 1-661): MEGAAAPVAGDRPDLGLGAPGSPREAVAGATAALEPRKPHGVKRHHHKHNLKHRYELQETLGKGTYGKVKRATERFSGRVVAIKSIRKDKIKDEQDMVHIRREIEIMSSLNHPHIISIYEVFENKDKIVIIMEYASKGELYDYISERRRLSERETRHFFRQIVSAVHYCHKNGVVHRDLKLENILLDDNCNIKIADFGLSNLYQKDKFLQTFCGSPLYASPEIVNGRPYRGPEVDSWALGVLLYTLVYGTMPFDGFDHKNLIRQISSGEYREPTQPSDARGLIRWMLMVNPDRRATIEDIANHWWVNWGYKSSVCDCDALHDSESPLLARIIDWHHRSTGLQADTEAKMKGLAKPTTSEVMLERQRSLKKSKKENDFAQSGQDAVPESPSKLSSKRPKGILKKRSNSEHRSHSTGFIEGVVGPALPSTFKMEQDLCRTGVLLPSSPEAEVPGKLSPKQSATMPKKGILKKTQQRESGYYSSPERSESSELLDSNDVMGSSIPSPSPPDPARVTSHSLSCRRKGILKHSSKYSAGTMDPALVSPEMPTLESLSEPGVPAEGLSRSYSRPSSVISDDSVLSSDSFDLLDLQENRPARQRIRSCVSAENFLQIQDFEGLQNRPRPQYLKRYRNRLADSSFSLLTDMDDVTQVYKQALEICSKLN

[5] = tested on: PKCε; test: PKCε translocation, cell fractionation and Western blotting in PC-3 cells; format: cell-based, human; conditions: Figure 3
Protocol: as §1

[6] = tested on: HeLa cells containing a doxycycline-inducible constitutively active PKCε; test: Scratch migration assay; format: cell-based; conditions: 25 μM, 24 h, doxycycline 2 μg/mL
Protocol: For cell migration and motility, a scratch migration assay described by Cha et al.[41] was employed. In a tissue culture dish, with logarithmically growing HeLa cells containing a doxycycline-inducible constitutively active PKCε, a migration gap of approximately 1 mm was created by introducing a “scratch” to the adherent layer of cultured cells using a sterile Gilson 200 μL pipet tip. The scratch was administered by hand with sufficient pressure to remove adherent cells from the polystyrene substrate but without causing physical damage to the polystyrene surface. The dish was washed with PBS to remove the cells and further incubated with 2 μg/mL doxycycline and 25 μM 8 for 24 h. Controls were left either untreated or were incubated with 2 μg/mL doxycycline and DMSO. […] Invasion of HeLa cells through a reconstituted basement membrane matrix was determined with a cell invasion assay kit from Chemicon (no. ECM550) as described by the manufacturer.

[7] = molecular target: BTK (Homo sapiens, UniProt Q06187); test: Kinase profiling (Dundee), BTK; format: biochemical; conditions: 25 μM solution
[8] = tested on: HeLa cells with doxycycline-inducible PKCε; test: Invasion of HeLa cells through a reconstituted basement membrane matrix; format: cell-based; conditions: PKCε induced with doxycycline, Figure 6C
Protocol: Figure 6 Compound 8 inhibits MARCKS phosphorylation, cell proliferation, and invasion following treatment with 8. (A) HeLa cells were starved for 16 h in medium without fetal calf serum. Subsequently, they were treated with 50 μM solution of compound 8 for 30 min and 100 nM TPA for the last 10 min. An amount of 150 μg of protein from lysed cells was loaded onto SDS 8–16% gels. Tubulin was used as loading control. Below a representative blot, a bar graph corresponding to quantitative scans of three independent experiments (±SD) is shown. (B) Cell proliferation following treatment of HeLa and PC-3 cells with 8. The mean values (±SD) of three independent experiments, in which three samples were taken within each experiment, are shown. (C) Invasion of cells through a membrane. Cell invasion was determined as described in Experimental Section. In HeLa cells with a doxycycline-inducible PKCε the expression of PKCε was induced with doxycycline (control + Dox). The mean of three experiments (±SD) is shown: (∗) p = 0.03. The data are normalized to the control (100%). Therefore, the standard deviation for the control is 0.
For cell migration and motility, a scratch migration assay described by Cha et al.[41] was employed. […] Invasion of HeLa cells through a reconstituted basement membrane matrix was determined with a cell invasion assay kit from Chemicon (no. ECM550) as described by the manufacturer.

Chain of ERK1 (P27361 whole entry, species assumed): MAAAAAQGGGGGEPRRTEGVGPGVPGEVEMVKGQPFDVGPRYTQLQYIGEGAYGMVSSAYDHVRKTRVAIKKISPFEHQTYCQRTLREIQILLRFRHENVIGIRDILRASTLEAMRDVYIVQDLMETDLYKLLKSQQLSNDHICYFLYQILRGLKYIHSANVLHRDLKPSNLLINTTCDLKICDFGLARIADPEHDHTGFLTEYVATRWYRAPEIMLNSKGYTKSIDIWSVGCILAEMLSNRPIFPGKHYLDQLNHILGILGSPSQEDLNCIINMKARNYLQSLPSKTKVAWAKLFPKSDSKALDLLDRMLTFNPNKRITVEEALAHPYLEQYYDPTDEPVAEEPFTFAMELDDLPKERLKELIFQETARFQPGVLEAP
Chain of BTK (Q06187 whole entry, species assumed): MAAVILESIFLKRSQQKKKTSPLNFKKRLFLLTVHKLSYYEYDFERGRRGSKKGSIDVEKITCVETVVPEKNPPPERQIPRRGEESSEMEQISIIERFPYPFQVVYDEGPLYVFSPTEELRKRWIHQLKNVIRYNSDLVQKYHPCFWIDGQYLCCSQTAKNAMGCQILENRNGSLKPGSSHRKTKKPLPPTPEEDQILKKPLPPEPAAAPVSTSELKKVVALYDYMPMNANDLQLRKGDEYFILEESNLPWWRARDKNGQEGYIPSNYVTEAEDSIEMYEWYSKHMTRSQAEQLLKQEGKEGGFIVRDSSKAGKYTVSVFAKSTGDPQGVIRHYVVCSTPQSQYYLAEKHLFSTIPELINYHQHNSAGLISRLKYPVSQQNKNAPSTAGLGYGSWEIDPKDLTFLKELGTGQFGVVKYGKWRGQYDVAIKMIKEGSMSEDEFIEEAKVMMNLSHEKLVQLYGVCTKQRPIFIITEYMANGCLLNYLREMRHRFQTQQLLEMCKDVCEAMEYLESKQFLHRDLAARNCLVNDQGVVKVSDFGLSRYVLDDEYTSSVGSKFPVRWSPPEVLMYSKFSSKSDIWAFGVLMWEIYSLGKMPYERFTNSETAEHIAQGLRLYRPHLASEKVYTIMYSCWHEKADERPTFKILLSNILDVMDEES

## CC(=O)c1cccc(NC(=O)c2sc3nc4cc5c(cc4cc3c2N)OCCO5)c1 [Compound 8, N-(3-acetylphenyl)-9-amino-2,3-dihydro-1,4-dioxino[2,3-g]thieno[2,3-b]quinoline-8-carboxamide]
[1]
  ERK1 activity, % of control: 55 % of control
[2]
  PKCδ in the membrane: did not decrease
[3]
  Induction of angiogenesis by vascular endothelial growth factor: inhibited
[4]
  NUAK1 activity, % of control: 49 % of control
[5]; TPA
  Ser729-phosphorylated PKCε at the membrane: did not reduce
[5]; TPA-induced
  Translocation of activated and phosphorylated PKCε to the membrane fraction: partially inhibits
[6]
  PKCε-induced migration of cells into a gap: inhibited
[7]
  BTK activity, % of control: 42 % of control
[8]
  Invasion of cells through an extracellular matrix: inhibited
